In general, Ki refers to a dissociation constant, usually derived from enzyme kinetics or from competition with a known ligand.

Molecules are shown by their SMILES.

For one molecule, Ki results are on record in BindingDB's records for doi:10.1124/jpet.103.062836 (Bayer Healthcare, 2004).

The target of test [1] is Cannabinoid receptor 2 (Homo sapiens, UniProt P34972).
Test [2] has as its target Cannabinoid receptor 1 (Rattus norvegicus, UniProt P20272).

Chain of Cannabinoid receptor 2 (P34972 whole entry): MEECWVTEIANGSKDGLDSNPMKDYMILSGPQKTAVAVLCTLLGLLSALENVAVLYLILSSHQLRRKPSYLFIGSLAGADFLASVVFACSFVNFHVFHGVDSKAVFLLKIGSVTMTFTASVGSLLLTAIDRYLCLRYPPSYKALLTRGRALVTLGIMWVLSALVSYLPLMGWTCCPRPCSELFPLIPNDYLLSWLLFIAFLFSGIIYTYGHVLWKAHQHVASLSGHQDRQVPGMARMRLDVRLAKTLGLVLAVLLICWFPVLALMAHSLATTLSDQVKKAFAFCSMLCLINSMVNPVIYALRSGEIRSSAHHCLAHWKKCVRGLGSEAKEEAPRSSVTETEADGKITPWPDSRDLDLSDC
Chain of Cannabinoid receptor 1 (P20272 whole entry): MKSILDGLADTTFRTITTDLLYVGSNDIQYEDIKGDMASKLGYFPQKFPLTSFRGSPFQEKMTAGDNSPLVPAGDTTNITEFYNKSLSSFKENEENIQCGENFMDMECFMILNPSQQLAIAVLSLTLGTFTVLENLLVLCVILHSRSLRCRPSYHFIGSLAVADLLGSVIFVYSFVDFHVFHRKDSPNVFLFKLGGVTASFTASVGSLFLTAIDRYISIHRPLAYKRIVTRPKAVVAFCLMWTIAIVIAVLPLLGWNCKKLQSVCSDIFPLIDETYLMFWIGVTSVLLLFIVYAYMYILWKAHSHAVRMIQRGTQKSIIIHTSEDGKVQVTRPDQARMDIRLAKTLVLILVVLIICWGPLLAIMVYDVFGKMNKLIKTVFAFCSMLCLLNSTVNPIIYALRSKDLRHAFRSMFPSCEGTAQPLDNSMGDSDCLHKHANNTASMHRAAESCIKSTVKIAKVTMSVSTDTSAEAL

In the case of `N#Cc1c(Oc2cccc(OS(=O)(=O)CCCC(F)(F)F)c2)cccc1C(F)(F)F`, the Ki came out at 45.5 nM in test [1] and 55.4 nM in test [2].
